Columns and labels:
[1] = Induction of cell cycle arrest in human KBV cells assessed as accumulation of cells at Sub-G1 phase at 10 uM incubated for 24 hrs by flow cytometry analysis (reference value: 1.24 +/- 0.14%); assay type: functional
[2] = Induction of cell cycle arrest in human KBV cells assessed as accumulation of cells at S phase at 10 uM incubated for 24 hrs by flow cytometry analysis (reference value: 12.42 +/- 0.41%); assay type: functional
[3] = Induction of cell cycle arrest in human KBV cells assessed as accumulation of cells at G1-G0 phase at 10 uM incubated for 24 hrs by flow cytometry analysis (reference value: 62.34 +/- 0.24%); assay type: functional
[4] = Reversal of multidrug resistance in human KBV Cells assessed as increase in PTX-induced cytotoxicity by measuring cell survival rate at 10 uM incubated for 72 hrs in presence of paclitaxel by MTT assay relative to control; assay type: functional; details: read-out: Survival
[5] = Induction of Ptx-mediated cell cycle arrest in human KBV cells assessed as accumulation of cells at S phase at 10 uM incubated for 24 hrs in presence of paclitaxel by flow cytometry analysis (Rvb =16.63 +/- 0.4%); assay type: functional
[6] = Induction of Ptx-mediated cell cycle arrest in human KBV cells assessed as accumulation of cells at Sub-G1 phase at 10 uM incubated for 24 hrs in presence of paclitaxel by flow cytometry analysis (reference value: 1.21 +/- 0.3%); assay type: functional
[7] = Induction of Ptx-mediated cell cycle arrest in human KBV cells assessed as accumulation of cells at G2-M phase at 10 uM incubated for 24 hrs in presence of paclitaxel by flow cytometry analysis (Rvb =25.34 +/- 0.92%); assay type: functional
[8] = Induction of Ptx-mediated cell cycle arrest in human KBV cells assessed as accumulation of cells at G1-G0 phase at 10 uM incubated for 24 hrs in presence of paclitaxel by flow cytometry analysis (Rvb =57.76 +/- 0.78%); assay type: functional
[9] = Induction of cell cycle arrest in human KBV cells assessed as accumulation of cells at G2-M phase at 10 uM incubated for 24 hrs by flow cytometry analysis (reference value: 24.94 +/- 0.21%); assay type: functional
[10] = Reversal of multidrug resistance in human KBV Cells assessed as increase in PTX-induced cytotoxicity by measuring cell survival rate at 5 uM incubated for 72 hrs in presence of paclitaxel by MTT assay relative to control; assay type: functional; details: read-out: Survival
[11] = Reversal of multidrug resistance in human KBV Cells assessed as reversal fold of paclitaxel IC50 at 10 uM incubated for 72 hrs in presence of paclitaxel by MTT assay; assay type: functional
[12] = Cytotoxicity against human KBV Cells assessed as cell survival rate at 10 uM incubated for 72 hrs by MTT assay; assay type: functional; details: read-out: Survival
[13] = Drug accumulation in human KB cells at 10 uM incubated for 4 hrs by LC-MS/MS analysis; assay type: ADME, cell-based
[14] = Reversal of multidrug resistance in human KBV Cells assessed as reversal fold of paclitaxel IC50 at 5 uM incubated for 72 hrs in presence of paclitaxel by MTT assay; assay type: functional
[15] = Drug accumulation in human KBV cells at 10 uM incubated for 4 hrs by LC-MS/MS analysis; assay type: ADME, cell-based

In the case of `COc1ccc(CCN(C)CCCC(C#N)(c2ccc(OC)c(OC)c2)C(C)C)cc1OC` (stereo not drawn), the Activity [1] is reported as 1.07%, the Activity [2] is reported as 14.59% and the Activity [3] is reported as 58.36%. For the same compound, the viability at 10 µM [4] was 41%, the Activity [5] was 21.71% and the Activity [6] was 8.56%. For the same compound, the Activity [7] was 37.67%, the Activity [8] was 39.76% and the Activity [9] was 26.78%.

In the case of `CC(C)(C)OC(=O)C[C@H](NC(=O)OC(C)(C)C)C(=O)N[C@H]1CC[C@]2(C)[C@H]3C[C@@H](O)[C@@H]4[C@@H]([C@]5(C)CC[C@@H](C(C)(C)O)O5)CC[C@@]4(C)[C@]3(C)CC[C@H]2C1(C)C`, the viability at 5 µM [10] is reported as 33%, the viability at 10 µM [4] is reported as 28% and the “fold change (FC)” value [11] is reported as 130. For the same compound, the viability at 10 µM [12] was 94%, the Drug uptake [13] was “Not Active” and the “fold change (FC)” value [14] was 61. The Drug uptake [15] was “Not Active”.

For `CC(C)(C)OC(=O)N[C@@H](Cc1ccc(OC(C)(C)C)cc1)C(=O)N[C@H]1CC[C@]2(C)[C@H]3C[C@@H](O)[C@@H]4[C@@H]([C@]5(C)CC[C@@H](C(C)(C)O)O5)CC[C@@]4(C)[C@]3(C)CC[C@H]2C1(C)C`, the viability at 5 µM [10] was 30%, the viability at 10 µM [4] was 19% and the “fold change (FC)” value [11] was 209. For the same compound, the viability at 10 µM [12] was 85%, the Drug uptake [13] was “Not Active” and the “fold change (FC)” value [14] was 35. For the same compound, the Drug uptake [15] was “Not Active”.

Reference: ChEMBL document CHEMBL5331114, “Discovery of Pyxinol Amide Derivatives Bearing Amino Acid Residues as Nonsubstrate Allosteric Inhibitors of P-Glycoprotein-Mediated Multidrug Resistance” (J Med Chem, 2023)
